Test results reported in PubChem BioAssay (NCI).
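Assay format: 96-well plates, 48-hour exposure. At the GI50, growth is halved. Definition used: TGI = concentration required for complete inhibition of growth.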

Legend:
Assay in all cases: DTP human tumour cell line panel, 48 h
RPMI-8226 leukemia = system: RPMI-8226 leukemia
TK-10 renal = system: TK-10 renal
NCI-H522 lung = system: NCI-H522 lung
SK-MEL-2 melanoma = system: SK-MEL-2 melanoma
HL-60(TB) leukemia = system: HL-60(TB) leukemia
UACC-62 melanoma = system: UACC-62 melanoma
SF-268 CNS = system: SF-268 CNS
NCI/ADR-RES ovarian = system: NCI/ADR-RES ovarian
MCF7 breast = system: MCF7 breast
MDA-MB-435 = system: MDA-MB-435

| SMILES | TGI (RPMI-8226 leukemia) [µM] | TGI (TK-10 renal) [µM] | TGI (NCI-H522 lung) [µM] | TGI (SK-MEL-2 melanoma) [µM] | TGI (HL-60(TB) leukemia) [µM] | TGI (UACC-62 melanoma) [µM] | TGI (SF-268 CNS) [µM] | GI50 (RPMI-8226 leukemia) [µM] | GI50 (TK-10 renal) [µM] | GI50 (NCI-H522 lung) [µM] | GI50 (SK-MEL-2 melanoma) [µM] | GI50 (HL-60(TB) leukemia) [µM] | GI50 (NCI/ADR-RES ovarian) [µM] | TGI (NCI/ADR-RES ovarian) [µM] | GI50 (MCF7 breast) [µM] | TGI (MCF7 breast) [µM] | GI50 (UACC-62 melanoma) [µM] | GI50 (MDA-MB-435) [µM] | TGI (MDA-MB-435) [µM] | GI50 (SF-268 CNS) [µM] |
| --- | --- | --- | --- | --- | --- | --- | --- | --- | --- | --- | --- | --- | --- | --- | --- | --- | --- | --- | --- | --- |
| O=C1NC(=O)c2c1n(Cc1ccccc1)c(=O)n2Cc1ccccc1 | > 100 | > 100 | > 100 | > 100 | > 100 | > 100 | > 100 |  |  |  |  |  |  |  |  |  |  |  |  |  |
| COc1cc2c(cc1Nc1nc(N3CCc4ccccc43)c3cc[nH]c3n1)N(C(=O)CN(C)C)CC2 | 3.98 | 3.37 | 11.7 | 12.3 | 6.82 | 9.08 | 10.3 | 1.55 | 1.67 | 3.94 | 6.01 | 1.18 | 0.731 | 2.81 | 0.48 | 2.09 | 4.71 | 2.64 | 7.91 | 5.03 |
| O=C1Oc2ccccc2C(=O)/C1=C1/C=C(c2ccccc2)SS1 | > 100 | > 100 | > 100 | > 100 | 45.2 | > 100 | > 100 |  |  |  |  |  |  | > 100 |  | > 100 |  |  | > 100 |  |
| CC1=N/C(=C\c2ccc(/C=C3/N=C(C)OC3=O)cc2)C(=O)O1 | > 100 | > 100 | > 100 | > 100 |  | > 100 | > 100 |  |  |  |  |  |  |  |  |  |  |  |  |  |
| COc1cc2c(N3CCN(C(=O)Nc4ccc(OC(C)C)cc4)CC3)ncnc2cc1OCCCN1CCCCC1 | > 54.1 | > 100 | 36.1 | 32.3 | 36.1 | 31 | 38.6 | 11.7 | 38.9 | 16.6 | 15.6 | 15.1 | 53.1 | > 100 | 13.4 | 36.6 | 15.8 | 13.8 | 29.9 | 16.2 |
| CCc1cccc(C)c1NC(=O)CCc1nc(=S)[nH][nH]1 | > 100 | > 100 | > 100 | > 100 | > 100 | > 100 | > 100 |  |  |  |  |  |  |  |  |  |  |  |  |  |
| N#C/C(=C\c1cc(OCc2ccccc2)c(OCc2ccccc2)cn1)C(N)=O | > 100 | > 100 | 41.2 | > 100 | 36.9 | > 100 | > 100 |  |  |  |  |  |  |  |  |  |  |  |  |  |
| CC1(C)OC[C@@H]([C@@]2(CO[Si](c3ccccc3)(c3ccccc3)C(C)(C)C)CC=CC(=O)O2)O1 | 71.9 | 33 | > 100 | > 100 |  | 84.5 | 45.8 | 3.55 | 11.7 | 5.02 | 6.23 |  | 5.64 | 35.1 | 4.83 | > 100 | 5.79 | 4.98 | 31.2 | 10.5 |
| O=C1[C@@H]2C(c3c(Cl)cccc3Cl)=NO[C@@H]2C(=O)N1c1ccc(Cc2ccc(N3C(=O)[C@H]4C(c5c(Cl)cccc5Cl)=NO[C@H]4C3=O)cc2)cc1 | > 100 | > 100 |  | > 100 | > 100 | > 100 | > 100 |  |  |  |  |  |  |  |  |  |  |  |  |  |
